From patent US20260070924A1, “INDAZOLE MACROCYCLES AND THEIR USE” (BLOSSOMHILL THERAPEUTICS, INC., priority 2022, published 2026) come the findings set out here.

In one assay the target is FLT3 (Homo sapiens (Human), UniProt P36888). The assay is described as follows: HotSpot radiometric kinase assay (Reaction Biology). It counts as biochemical.
In the next assay the target is FLT3-ITD (Homo sapiens, UniProt P36888). The assay is described as above. The format is biochemical.
A further assay concerns the target PIM1 (Homo sapiens (Human), UniProt P11309). The description is as above. The format is biochemical. On the procedure: (§1) Briefly, specific kinase/substrate pairs along with required cofactors were prepared in reaction buffer; 20 mM Hepes pH 7.5, 10 mM MgCl2, 1 mM EGTA, 0.02% Brij35, 0.02 mg/ml BSA, 0.1 mM Na3VO4, 2 mM DTT, 1% DMSO. Compounds were delivered into the reaction, followed ˜20 minutes later by addition of a mixture of ATP (Sigma, St. Louis MO) and ^33P ATP (Perkin Elmer, Waltham MA) to a final concentration of […]. Reactions were carried out at room temperature for 120 min, followed by spotting of the reactions onto P81 ion exchange filter paper (Whatman Inc., Piscataway, NJ). Unbound phosphate was removed by extensive washing of filters in 0.75% phosphoric acid. […] IC50 values and curve fits were obtained using Prism (GraphPad Software).

Another assay addresses PIM2 (Homo sapiens (Human), UniProt Q9P1W9). The assay is described as above. It counts as biochemical. On the procedure: as §1
The next assay concerns the target PIM3 (Homo sapiens (Human), UniProt Q86V86). Described as above. It counts as biochemical. The method, then: as §1
The target of the next assay is FLT3 (D835H) (Homo sapiens (Human), UniProt P36888, D835H). Nature of the assay: KINOMEscan binding assay (Eurofins DiscoveRx). The method, then: (§2) For most kinases, kinase-tagged T7 phage strains were prepared in an E. coli host derived from the BL21 strain. E. coli were grown to log-phase and infected with T7 phage and incubated with shaking at 32° C. until lysis. The lysates were centrifuged and filtered to remove cell debris. The remaining kinases were produced in HEK-293 cells and subsequently tagged with DNA for qPCR detection. Streptavidin-coated magnetic beads were treated with biotinylated small molecule ligands for 30 minutes at room temperature to generate affinity resins for kinase assays. The liganded beads were blocked with excess biotin and washed with blocking buffer (SeaBlock (Pierce), 1% BSA, 0.05% Tween 20, 1 mM DTT) to remove unbound ligand and to reduce non-specific binding. […] Test compounds were prepared as 111× stocks in 100% DMSO. Kds were determined using an 11-point 3-fold compound dilution series with three DMSO control points. […] The compounds were then diluted directly into the assays such that the final concentration of DMSO was 0.9%. All reactions performed in polypropylene 384-well plate. Each was a final volume of 0.02 ml. […] The kinase concentration in the eluates was measured by qPCR. Binding constants (Kds) were calculated with a standard dose-response curve using a non-linear least square fit with the Levenberg-Marquardt algorithm.

The next assay has as its target FLT3 (ITD, D835V). The assay is described as follows: KINOMEscan binding assay (Eurofins DiscoveRx). On the procedure:
as §2

The next assay addresses FLT3 (ITD, F691L). Nature of the assay: KINOMEscan binding assay (Eurofins DiscoveRx). The method, then: as §2
The target in the next assay is FLT3-autoinhibited (Homo sapiens (Human), UniProt P36888). Nature of the assay: KINOMEscan binding assay (Eurofins DiscoveRx). The method, then:
as §2

The target of a further assay is phospho-FLT3 (Y589/Y591) (Homo sapiens (Human), UniProt P36888, INS600HVDFREYEYD). Nature of the assay: Inhibition of kinase phosphorylation by Western Blot in MV-4-11. It counts as cell-based. The conditions noted are these: MV-4-11 cells, 4 hour-incubation; read-out: pFLT3 MV-4-11 IC50.
Assay [1] deals with Phospho-S6 Ribosomal Protein (S235/236). Nature of the assay: Inhibition of kinase phosphorylation by Western Blot in MOLM-13. It counts as cell-based. As to conditions: MOLM-13 cells, 4 hour-incubation; read-out: pS6 MOLM-13 IC50. The method, then:
(§3) Inhibition of kinase phosphorylation assay was performed by Western Blot using MV-4-11 and MOLM13 cell lines. Cells were plated in 24 well plates at 1 million cells per well and then treated with compounds at different concentrations, starting at 100 nM, 1:4 titration with DMSO as control. After 4 hour-incubation, cells were washed once with ice-cold PBS, and lysed in RIPA lysis buffer with protease and phosphatase inhibitors. The cell lysates were then sonicated and spun down, and 40 μg of proteins were separated by sodium dodecyl sulfate electrophoresis on a 4 to 12% Bis-Tris polyacrylamide gel and transferred onto nitrocellulose membranes using Bio-Rad Trans-Blot Turbo Transfer System (Bio-Rad). Blocking was performed using 3% BSA or 5% Non-fat dry milk (Fisher Scientific) in TBST (Tris-buffered saline containing 0.05% of Tween 20) (Bio-Rad Laboratories, Inc.). The membranes were incubated overnight with anti-phospho-FLT3 (Y589/Y591) (CST #60413), anti-phospho-STAT5 (Y694) (CST #4322), anti-Phospho-p44/42 MAPK (Erk1/2) (T202/Y204) (CST #9101), anti-Phospho-S6 Ribosomal Protein (S235/236) (CST #4858) and anti-β-Actin (CST #8457) each diluted 1000 times in 3% BSA in TBST. Membranes were washed with TBST and then incubated at room temperature for 1 hour with HRP-labeled anti-rabbit IgG polyclonal antibody (CST #7074) diluted 1000 times in 3% BSA. After TBST washing, blots were developed with a chemiluminescence system (SuperSignal West Femto Maximum Sensitivity Substrate, Pierce #34095). Luminescence was detected by LI-COR Odyssey M imaging system and luminescence intensity were quantified using Empiria Studio 2.2 software. Data was analyzed using GraphPad Prism 9 (GraphPad Software, San Diego, CA) to obtain IC50 values.
For orientation: A western blot detects proteins with antibodies after separation by electrophoresis.

Assay [2] relates to Phospho-p44/42 MAPK (Erk1/2) (T202/Y204). Described as above. It counts as cell-based. As to conditions: MOLM-13 cells, 4 hour-incubation; read-out: pERK MOLM-13 IC50. On the procedure: as §3
In another assay the test system is phospho-STAT5 (Y694). The description is as above. The format is cell-based. As to conditions: MOLM-13 cells, 4 hour-incubation; read-out: pSTAT5 MOLM-13 IC50. On the procedure: as §3

pIC50, pKd: −log10 of the molar value.

Chain of PIM1 (P11309 whole entry): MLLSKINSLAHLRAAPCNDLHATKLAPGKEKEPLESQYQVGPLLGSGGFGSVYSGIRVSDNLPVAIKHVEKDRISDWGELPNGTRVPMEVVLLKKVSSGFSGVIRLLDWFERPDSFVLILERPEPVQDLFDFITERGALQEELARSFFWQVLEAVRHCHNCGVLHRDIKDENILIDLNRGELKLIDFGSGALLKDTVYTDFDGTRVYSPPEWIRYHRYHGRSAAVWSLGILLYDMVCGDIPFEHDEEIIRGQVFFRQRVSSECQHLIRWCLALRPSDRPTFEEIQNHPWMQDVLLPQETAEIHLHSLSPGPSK
Chain of PIM2 (Q9P1W9 whole entry): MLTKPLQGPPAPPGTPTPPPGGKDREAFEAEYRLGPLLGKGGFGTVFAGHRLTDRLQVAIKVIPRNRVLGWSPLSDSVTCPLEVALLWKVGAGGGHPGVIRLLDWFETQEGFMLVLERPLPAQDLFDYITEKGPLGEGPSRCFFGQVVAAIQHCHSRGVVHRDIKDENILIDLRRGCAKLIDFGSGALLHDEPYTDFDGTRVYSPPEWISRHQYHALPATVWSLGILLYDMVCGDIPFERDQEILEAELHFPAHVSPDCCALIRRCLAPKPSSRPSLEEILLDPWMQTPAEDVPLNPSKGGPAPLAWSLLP
Description for FLT3-ITD: Briefly, specific kinase/substrate pairs along with required cofactors were prepared in reaction buffer; 20 mM Hepes pH 7.5, 10 mM MgCl2, 1 mM EGTA, 0.02% Brij35, 0.02 mg/ml BSA, 0.1 mM Na3VO4, 2 mM DTT, 1% DMSO. Compounds were delivered into the reaction, followed ˜20 minutes later by addition of a mixture of ATP (Sigma, St. Louis MO) and ^33P ATP (Perkin Elmer, Waltham MA) to a final concentration of 10 M. Reactions were carried out at room temperature for 120 min, followed by spotting of the reactions onto P81 ion exchange filter paper (Whatman Inc., Piscataway, NJ). Unbound phosphate was removed by extensive washing of filters in 0.75% phosphoric acid. […] IC50 values and curve fits were obtained using Prism (GraphPad Software).
Description for phospho-FLT3 (Y589/Y591): Inhibition of kinase phosphorylation assay was performed by Western Blot using MV-4-11 and MOLM13 cell lines. Cells were plated in 24 well plates at 1 million cells per well and then treated with compounds at different concentrations, starting at 100 nM, 1:4 titration with DMSO as control. After 4 hour-incubation, cells were washed once with ice-cold PBS, and lysed in RIPA lysis buffer with protease and phosphatase inhibitors. The cell lysates were then sonicated and spun down, and 40 μg of proteins were separated by sodium dodecyl sulfate electrophoresis on a 4 to 12% Bis-Tris polyacrylamide gel and transferred onto nitrocellulose membranes using Bio-Rad Trans-Blot Turbo Transfer System (Bio-Rad). Blocking was performed using 3% BSA or 5% Non-fat dry milk (Fisher Scientific) in TBST (Tris-buffered saline containing 0.05% of Tween 20) (Bio-Rad Laboratories, Inc.). […] Luminescence was detected by LI-COR Odyssey M imaging system and luminescence intensity were quantified using Empiria Studio 2.2 software. Data was analyzed using GraphPad Prism 9 (GraphPad Software, San Diego, CA) to obtain IC50 values.

The pIC50 is the IC50 on a negative log10 scale, so that one unit is a factor of ten. Usually pKd stands for the Kd on a negative log10 scale, so that one unit is a factor of ten. A lower pKd goes with a high Kd. Take `CCc1nn(C)c2c1/C=C/c1n[nH]c3ccc(cc13)-c1cnn(C)c1OCCN(C)C2=O` [Ex. 6, (17E)-16-ethyl-8,12,14-trimethyl-2,11,12,14-tetrahydro-8H-3,5-ethenotripyrazolo[3,4-f:3′,4′-j:4″,3″-n][1,4]oxazacyclopentadecin-13(10H)-one]: the pIC50 at FLT3 is 10.06; on FLT3-ITD it was 9.46; against PIM1 it was 8.58; against PIM2, 8.25; on PIM3 it was 9.94; at phospho-FLT3 (Y589/Y591) it was 9.80. For the same compound, the pIC50 was 8.61 in assay [1], 8.39 in [2] and 9.14 in the assay on phospho-STAT5 (Y694). Besides, the pKd on FLT3 (D835H) is 7.17; on FLT3 (ITD, D835V), 10.24; on FLT3 (ITD, F691L), 9.64; on FLT3-autoinhibited it was 8.04.
